Assay [1] relates to KOS strain of HSV-1 virus. The assay can be described thus: HSV-1 qPCR assay (cellular herpesvirus replication). The class given is cell-based. The following applies: Human alphaherpesvirus 1; NN-NHDF cells, qPCR after 24 hrs; n>3, value (+/- spread). Here is the method: (§1) For all viral assays, 10 mM DMSO stock compound solutions were serially diluted in DMSO at 3.16 fold dilutions in 96-well clear round bottom plates. Compounds were then diluted in assay media at 1:20 and subsequently 10 μL of these dilutions were added to cells for final compound concentrations ranging either from 0.0159 μM to 50 μM in 0.5% DMSO/assay media, or from 0.00318 to 10 μM in 0.5% DMSO/assay media.
HSV-1 qPCR assay: The assay uses KOS strain of HSV-1 virus (ATCC cat #VR-1493). Viral replication in the presence or absence of compounds was measured by qPCR according to the following procedure: NN-NHDF cells were plated at 9,000 cells/well in 96-well white-wall clear bottom plates in 80 μL/well of assay media (same as CMV) and left at room temperature in laminar flow hood for 20 mins followed by incubation at 37° C. […]
(§2) qPCR reactions were carried out in a total reaction volume of 20 μL, using the QuantiFast® Multiplex PCR kit (Qiagen cat #204656). Eighteen μL of qPCR master mix (10 μL of 2× QuantiFast® Multiplex PCR Master Mix, 1 μL of 20× Primer/Probe Mix specific to housekeeping gene, 1 μL of 20× Primer/Probe Mix specific to viral gene, 6 μL of H2O) was distributed into each well of a 384 well plate. […]
Relative quantification was calculated with the ΔΔCT Method, and then converted into percent inhibitions. […] EC50 values were calculated using XLFit Dose Response One Site Model 205.

The test system of assay [2] is EBV (SNU-719 gastric carcinoma cell line latently infected with EBV). The experiment in a line: EBV qPCR assay (cellular herpesvirus replication). It counts as cell-based. The conditions noted are these: human gammaherpesvirus 4; SNU-719 cells, TPA/NaB reactivation, qPCR after 72 hrs; n>3, value (+/- spread). Here is the method: as §1
EBV qPCR assay: The assay uses the SNU-719 gastric carcinoma cell line which is latently infected with EBV. Upon reactivation with chemical reagents, EBV DNA copy number was measured by qPCR. Viral replication in the presence or absence of compounds was measured according to the following procedure: SNU-719 cells were plated at 2×10^4 cells/well in 96-well clear bottom plates, black in 80 μL/well of assay media: 2% FBS in RPMI 1640 (ATCC cat # 30-2001). […]
as §2
Relative quantification was calculated with the ΔΔCT Method, and then converted into percent inhibitions. […]
(In general: Quantitative PCR measures a nucleic acid by following its amplification.)

The term EC50 denotes the concentration at which the effect is half-maximal. Take `N#Cc1ccc(CNC(=O)c2ccc3n(c2=O)CCN(CC2(S(=O)(=O)C4CC4)CC2)C3=O)cc1` [Example 1, N-(4-cyanobenzyl)-2-((1-(cyclopropylsulfonyl)cyclopropyl)methyl)-1,6-dioxo-2,3,4,6-tetrahydro-1H-pyrido[1,2-a]pyrazine-7-carboxamide]: the values for the EC50 in assay [1] and in assay [2] were 32 nM and 12 nM, respectively.

Values taken from patent US12466821B2 (Novartis AG, priority 2018, dated 2025).
